This is an account of results in ChEMBL document CHEMBL3616452 (Eur J Med Chem, 2015).

A short description of assay [1]: Antiviral activity against Influenza A virus (A/WSN/1933(H1N1)) assessed as virus-mediated cytopathic effect in MDCK cells after 48 to 72 hrs. The format is functional, cell-based. (In general: Damage to the host cells serves as the signal in cytopathic effect assays.)
The target of assay [2] is Nucleoprotein (Influenza A virus (strain A/Wilson-Smith/1933 H1N1), UniProt P15682). Briefly: Binding affinity to Influenza A virus (A/WSN/1933(H1N1)) nucleoprotein transfected in 293T cells assessed as inhibition of RNA dependent RNA polymerase activity. The format is cell-based.
The nature of assay [3]: Antiviral activity against wild-type Influenza A virus (A/WSN/1933(H1N1)) assessed as virus-mediated cytopathic effect in MDCK cells. The format is functional, cell-based.
The test system of assay [4] is MDCK. Briefly: Inhibition of nucleoprotein synthesis in Influenza A virus (A/WSN/1933(H1N1)) infected in MDCK cells at 15.0 uM by immunofluorescence assay. It counts as functional, cell-based.
The subject of assay [5] is MDCK. Nature of the assay: Inhibition of nucleoprotein synthesis in Influenza A virus (A/WSN/1933(H1N1)) infected in MDCK cells at 3.0 uM by immunofluorescence assay. The format is functional, cell-based.
Assay [6] concerns MDCK. Briefly: Inhibition of nucleoprotein synthesis in Influenza A virus (A/WSN/1933(H1N1)) infected in MDCK cells by fluorescence analysis. It counts as functional, cell-based.
Assay [7] has as its system MDCK. Briefly: Inhibition of nucleoprotein synthesis in Influenza A virus (A/WSN/1933(H1N1)) infected in MDCK cells at 10.0 uM dosed post-infection by fluorescence analysis. It counts as functional, organism-based.
Assay [8] concerns MDCK. Nature of the assay: Inhibition of nucleoprotein synthesis in Influenza A virus (A/WSN/1933(H1N1)) infected in MDCK cells at 0.3 and 1 uM dosed > 0.5 hrs post infection by fluorescence analysis. The format is functional, organism-based.
For assay [9], the system named is MDCK. Nature of the assay: Inhibition of nucleoprotein synthesis in Influenza A virus (A/WSN/1933(H1N1)) infected in MDCK cells at 0.3 uM dosed 0.5 hrs post infection by fluorescence analysis. It counts as functional, organism-based.
In assay [10] the test system is MDCK. Nature of the assay: Antiviral activity against wild-type Influenza A virus (A/WSN/1933(H1N1)) assessed as virus-mediated cytopathic effect in MDCK cells at 0.3 uM. The format is functional, cell-based.
The test system of assay [11] is MDCK. Nature of the assay: Inhibition of nucleoprotein synthesis in Influenza A virus (A/WSN/1933(H1N1)) infected in MDCK cells at 1.0 uM dosed 0.5 hrs post infection by fluorescence analysis. It counts as functional, organism-based.

Active and inactive are the calls of the source. The calls are words filed in the database; no cut-off is given here. Some results are limits rather than exact numbers.

By EC50 is commonly meant the concentration at which the effect is half-maximal. What is called IC50 is the point on the concentration scale where inhibition reaches its midpoint.

Nucleoprotein, sequence (P15682 whole entry): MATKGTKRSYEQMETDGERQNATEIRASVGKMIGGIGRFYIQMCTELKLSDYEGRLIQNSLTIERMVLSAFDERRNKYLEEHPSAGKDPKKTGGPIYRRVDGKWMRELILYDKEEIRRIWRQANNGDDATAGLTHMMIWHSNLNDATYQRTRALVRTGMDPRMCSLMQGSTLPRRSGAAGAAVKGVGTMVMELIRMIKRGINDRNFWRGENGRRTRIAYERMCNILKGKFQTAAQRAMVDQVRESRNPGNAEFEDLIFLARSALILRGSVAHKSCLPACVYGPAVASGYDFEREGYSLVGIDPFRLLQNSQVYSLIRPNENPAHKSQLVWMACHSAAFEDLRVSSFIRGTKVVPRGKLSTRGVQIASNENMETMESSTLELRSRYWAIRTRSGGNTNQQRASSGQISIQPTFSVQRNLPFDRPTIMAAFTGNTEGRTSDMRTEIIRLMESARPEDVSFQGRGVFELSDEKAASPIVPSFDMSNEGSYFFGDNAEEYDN

In the case of `Cn1c(=O)c2c(-c3ccccc3)n3c(c2n(C)c1=O)C(c1ccccc1Cl)OCC3(C)C` (centres undefined), in assay [1], the 50% effective concentration (EC50) came out at 8 µM.
Consider `Cn1c(=O)c2c(-c3ccccc3)n3c(c2n(C)c1=O)C(c1ccco1)OCC3` (centres undefined), for which, in [1], the EC50 is over 50 µM.
The same measure, in the same setting: in the case of `COc1ccc(C2OCC(C)(C)n3c(-c4ccccc4)c4c(=O)n(C)c(=O)n(C)c4c32)cc1` (centres undefined) it was over 50 µM.
For `Cn1c(=O)c2c(-c3ccccc3)n3c(c2n(C)c1=O)C(c1ccccc1F)OCC3(C)C` (centres undefined), in [2], the half-inhibitory concentration (IC50) amounted to 4900 nM. Further, the values for the EC50 in [3] and in [1] were 2300 nM and 1 µM, respectively. In addition, the inhibition result in [4] and in assay [7] was “Active” throughout. For the same compound, the inhibition entry in assay [5] is “inactive”. Further, in assay [6] (TDE = time-dependent effect), the inhibition result is “tde”.
With `Cn1c(=O)c2c(-c3ccccc3)n3c(c2n(C)c1=O)C(C1CCCCC1)OCC3` (centres undefined), in assay [1], the EC50 is over 50 µM.
The same measure, in the same setting: in the case of `Cn1c(=O)c2c(-c3ccccc3)n3c(c2n(C)c1=O)C(c1ccccc1)OCC3(C)C` (centres undefined) it was 5.4 µM.
Turning to `Cn1c(=O)c2c(-c3ccccc3)n3c(c2n(C)c1=O)C(c1cccs1)OCC3(C)C` (centres undefined), the EC50 in assay [1] came out at 6.8 µM.
In the case of `Cn1c(=O)c2c(-c3ccccc3)n3c(c2n(C)c1=O)C(c1ccccc1F)OCC3` (centres undefined), in [1], the EC50 was over 50 µM.
On the same count and under the same terms, in the case of `CCCn1c(=O)c2c(-c3ccccc3)n3c(c2n(CCC)c1=O)C(C1CCCCC1)OCC3` (centres undefined) it was over 50 µM; in that of `Cn1c(=O)c2c(-c3ccccc3)n3c(c2n(C)c1=O)C(c1ccccc1)OCC3` (centres undefined), over 50 µM.
Same read-out and setting: the result for `Cn1c(=O)c2c(-c3ccccc3)n3c(c2n(C)c1=O)C(C1CCCC1)OCC3` (centres undefined) reads over 50 µM; that for `Cn1c(=O)c2c(-c3ccccc3)n3c(c2n(C)c1=O)C(c1ccc(Br)o1)OCC3` (centres undefined), over 50 µM.
For the compound `Cn1c(=O)c2c(-c3ccccc3)n3c(c2n(C)c1=O)C(C1CCCCC1)OCC3(C)C` (centres undefined), the 50% effective concentration (EC50) in assay [1] is over 50 µM.
Regarding `Cc1onc(-c2ccccc2Cl)c1C(=O)N1CCN(c2ccc([N+](=O)[O-])cc2)CC1`, the IC50 in assay [2] was found to be 230 nM. Moreover, the inhibition entry in assay [8] is “inactive”. Moreover, the inhibition result in assay [9], in [6] and in assay [11] was “Active” throughout. Moreover, in assay [10], the result was Active.
Turning to `CCCC1OCCn2c(-c3ccccc3)c3c(=O)n(C)c(=O)n(C)c3c21` (centres undefined), in assay [1], the half-maximal effective concentration (EC50) was over 50 µM.
The same measure, in the same setting: the result for `Cn1c(=O)c2c(-c3ccccc3)n3c(c2n(C)c1=O)C(c1ccccc1Cl)OCC3` (centres undefined) reads over 50 µM; that for `Cn1c(=O)c2c(-c3ccccc3)n3c(c2n(C)c1=O)C(c1cccs1)OCC3` (centres undefined), over 50 µM; that for `Cn1c(=O)c2c(-c3ccccc3)n3c(c2n(C)c1=O)C(c1ccc(C(F)(F)F)cc1)OCC3(C)C` (centres undefined), over 50 µM.
